Measured values taken from ChEMBL document CHEMBL5236633, “Multi-therapies Based on PARP Inhibition: Potential Therapeutic Approaches for Cancer Treatment” (J Med Chem, 2022).

Columns and labels:
[1] = test system: MDA-MB-231; test: Antiproliferative activity against human MDA-MB-231 cells assessed as cell growth inhibition incubated for 24 hrs by CCK-8 assay; assay type: functional, cell-based; settings: MDA-MB-231, 24 h
[2] = target: Protein cereblon/Poly [ADP-ribose] polymerase 1 (Homo sapiens, UniProt P09874+Q96SW2); test: Protac activity at CRBN/PARP1 in human HeLa cells assessed as induction of PARP-1 degradation measured after 24 hrs by immunoblotting analysis; assay type: cell-based
Chain of Protein cereblon/Poly [ADP-ribose] polymerase 1 (P09874 whole entry): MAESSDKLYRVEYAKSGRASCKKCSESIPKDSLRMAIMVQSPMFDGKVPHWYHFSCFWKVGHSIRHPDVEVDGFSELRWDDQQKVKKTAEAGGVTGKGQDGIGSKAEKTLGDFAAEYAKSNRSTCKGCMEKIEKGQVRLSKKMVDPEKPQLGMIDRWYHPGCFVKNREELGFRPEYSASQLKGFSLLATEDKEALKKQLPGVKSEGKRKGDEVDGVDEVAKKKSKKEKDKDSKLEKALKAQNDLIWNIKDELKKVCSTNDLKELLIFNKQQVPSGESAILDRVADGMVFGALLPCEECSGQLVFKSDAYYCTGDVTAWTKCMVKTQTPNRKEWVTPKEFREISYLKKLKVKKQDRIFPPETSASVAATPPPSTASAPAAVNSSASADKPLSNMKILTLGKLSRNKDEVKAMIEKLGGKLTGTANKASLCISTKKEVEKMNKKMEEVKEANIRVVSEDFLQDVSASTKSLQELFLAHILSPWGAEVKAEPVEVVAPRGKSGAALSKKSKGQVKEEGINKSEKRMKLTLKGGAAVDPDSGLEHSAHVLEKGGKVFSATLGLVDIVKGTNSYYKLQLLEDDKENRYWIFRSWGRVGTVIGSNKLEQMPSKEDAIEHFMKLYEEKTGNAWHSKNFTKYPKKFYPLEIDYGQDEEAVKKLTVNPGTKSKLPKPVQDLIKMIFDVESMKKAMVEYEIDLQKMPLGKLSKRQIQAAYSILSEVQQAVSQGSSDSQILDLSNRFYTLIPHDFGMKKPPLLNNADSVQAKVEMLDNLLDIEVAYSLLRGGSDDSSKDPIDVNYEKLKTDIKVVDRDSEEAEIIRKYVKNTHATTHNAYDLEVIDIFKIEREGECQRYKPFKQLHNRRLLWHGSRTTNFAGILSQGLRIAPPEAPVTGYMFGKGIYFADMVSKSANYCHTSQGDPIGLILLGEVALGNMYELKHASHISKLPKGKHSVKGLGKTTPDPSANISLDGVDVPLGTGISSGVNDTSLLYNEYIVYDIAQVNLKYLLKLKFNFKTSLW
Chain of Protein cereblon/Poly [ADP-ribose] polymerase 1 (Q96SW2 whole entry): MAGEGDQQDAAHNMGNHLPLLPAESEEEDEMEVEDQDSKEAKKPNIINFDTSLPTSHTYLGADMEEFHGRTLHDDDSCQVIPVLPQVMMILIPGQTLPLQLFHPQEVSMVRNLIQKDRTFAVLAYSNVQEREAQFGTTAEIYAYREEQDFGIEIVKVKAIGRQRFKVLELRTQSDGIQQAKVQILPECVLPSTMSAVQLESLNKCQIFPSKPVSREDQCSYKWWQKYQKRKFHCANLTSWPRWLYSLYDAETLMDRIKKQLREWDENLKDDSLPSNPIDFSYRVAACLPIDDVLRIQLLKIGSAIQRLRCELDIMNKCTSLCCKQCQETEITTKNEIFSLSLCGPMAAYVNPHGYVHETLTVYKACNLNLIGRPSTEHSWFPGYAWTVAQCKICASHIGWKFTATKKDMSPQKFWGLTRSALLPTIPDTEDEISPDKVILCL

[3] = target: T1, Poly [ADP-ribose] polymerase 1 (Homo sapiens, UniProt P09874); test: Inhibition of PARP1 (unknown origin) incubated for 30 mins by fluorescence based analysis
T1 sequence (P09874 whole entry): as the sequence (P09874 whole entry) above

[4] = target: T1, Poly [ADP-ribose] polymerase 1; test: Inhibition of PARP1 (unknown origin)
[5] = test system: A549; test: Antiproliferative activity against human A549 cells assessed as cell growth inhibition; assay type: functional, cell-based
[6] = test system: A549; test: Antiproliferative activity against human A549 cells assessed as cell growth inhibition measured after 24 hrs by MTT assay; assay type: functional, cell-based; settings: A549, 24 h
[7] = target: Epidermal growth factor receptor (Homo sapiens, UniProt P00533); test: Inhibition of EGFR (unknown origin)
Chain of Epidermal growth factor receptor (P00533 whole entry): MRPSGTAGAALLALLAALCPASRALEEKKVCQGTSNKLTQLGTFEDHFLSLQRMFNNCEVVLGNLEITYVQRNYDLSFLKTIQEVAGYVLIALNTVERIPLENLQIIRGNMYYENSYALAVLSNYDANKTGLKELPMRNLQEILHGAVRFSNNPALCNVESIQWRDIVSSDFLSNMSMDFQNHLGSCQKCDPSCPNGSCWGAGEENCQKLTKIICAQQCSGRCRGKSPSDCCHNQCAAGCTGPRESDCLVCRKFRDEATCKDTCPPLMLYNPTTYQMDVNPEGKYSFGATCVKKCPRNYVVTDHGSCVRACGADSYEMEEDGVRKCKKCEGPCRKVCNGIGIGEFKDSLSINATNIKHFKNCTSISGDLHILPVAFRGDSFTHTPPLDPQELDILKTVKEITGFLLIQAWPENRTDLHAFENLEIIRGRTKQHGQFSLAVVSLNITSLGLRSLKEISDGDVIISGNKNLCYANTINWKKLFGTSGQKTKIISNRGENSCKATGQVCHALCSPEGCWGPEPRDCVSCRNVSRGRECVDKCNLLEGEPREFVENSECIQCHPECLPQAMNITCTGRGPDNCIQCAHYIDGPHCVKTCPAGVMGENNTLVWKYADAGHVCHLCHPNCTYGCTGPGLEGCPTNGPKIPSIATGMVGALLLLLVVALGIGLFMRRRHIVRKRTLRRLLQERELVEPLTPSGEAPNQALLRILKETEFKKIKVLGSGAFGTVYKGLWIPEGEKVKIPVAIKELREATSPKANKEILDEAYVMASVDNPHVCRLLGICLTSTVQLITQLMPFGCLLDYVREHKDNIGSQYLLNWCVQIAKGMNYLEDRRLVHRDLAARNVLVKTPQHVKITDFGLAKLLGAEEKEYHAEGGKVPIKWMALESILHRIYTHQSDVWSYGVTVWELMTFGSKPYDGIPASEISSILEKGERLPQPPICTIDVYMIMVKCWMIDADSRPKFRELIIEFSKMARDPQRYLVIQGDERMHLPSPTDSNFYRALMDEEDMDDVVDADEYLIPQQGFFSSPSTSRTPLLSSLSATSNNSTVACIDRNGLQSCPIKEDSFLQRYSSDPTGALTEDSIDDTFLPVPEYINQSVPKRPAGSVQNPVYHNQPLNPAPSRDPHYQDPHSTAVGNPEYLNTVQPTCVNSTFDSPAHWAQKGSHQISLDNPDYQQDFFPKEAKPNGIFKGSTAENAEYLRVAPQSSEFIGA

[8] = test system: MDA-MB-436; test: Antiproliferative activity against human BRCA1 -/- MDA-MB-436 cells assessed as cell growth inhibition; assay type: functional, cell-based
[9] = target: T2, Protein mono-ADP-ribosyltransferase PARP3 (Homo sapiens, UniProt Q9Y6F1); test: Inhibition of PARP3 (unknown origin)
T2 sequence (Q9Y6F1 whole entry): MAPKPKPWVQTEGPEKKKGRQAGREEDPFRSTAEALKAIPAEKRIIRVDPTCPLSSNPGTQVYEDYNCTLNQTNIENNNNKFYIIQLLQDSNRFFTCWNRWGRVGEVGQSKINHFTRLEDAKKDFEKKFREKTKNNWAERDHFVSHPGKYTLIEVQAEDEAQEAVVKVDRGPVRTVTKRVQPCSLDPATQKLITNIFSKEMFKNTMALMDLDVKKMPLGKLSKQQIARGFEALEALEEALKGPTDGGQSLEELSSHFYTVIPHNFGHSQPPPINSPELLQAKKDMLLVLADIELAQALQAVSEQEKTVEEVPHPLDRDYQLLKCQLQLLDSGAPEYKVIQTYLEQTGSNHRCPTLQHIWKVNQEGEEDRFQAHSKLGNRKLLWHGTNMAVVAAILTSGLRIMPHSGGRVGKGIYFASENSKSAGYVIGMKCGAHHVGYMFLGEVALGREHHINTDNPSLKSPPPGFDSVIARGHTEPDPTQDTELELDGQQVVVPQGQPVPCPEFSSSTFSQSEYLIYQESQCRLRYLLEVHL

[10] = target: T3, Protein mono-ADP-ribosyltransferase PARP16 (Homo sapiens, UniProt Q8N5Y8); test: Inhibition of PARP16 (unknown origin)
T3 sequence (Q8N5Y8 whole entry): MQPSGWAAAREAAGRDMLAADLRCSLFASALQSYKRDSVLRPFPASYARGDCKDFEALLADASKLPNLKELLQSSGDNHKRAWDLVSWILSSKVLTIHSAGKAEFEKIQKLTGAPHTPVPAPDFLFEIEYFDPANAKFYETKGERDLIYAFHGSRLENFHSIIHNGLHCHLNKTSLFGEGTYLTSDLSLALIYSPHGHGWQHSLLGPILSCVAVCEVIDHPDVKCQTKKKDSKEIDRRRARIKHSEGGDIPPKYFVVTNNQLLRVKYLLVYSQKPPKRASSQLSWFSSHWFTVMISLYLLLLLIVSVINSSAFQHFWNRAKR

[11] = test system: MDA-MB-231; test: Antiproliferative activity against human MDA-MB-231 cells assessed as cell growth inhibition at 10 uM incubated for 24 hrs by CCK-8 assay relative to control; assay type: functional; design: scale not given: the % may be the effect or the level left
[12] = test system: MDA-MB-231; test: Antiproliferative activity against human MDA-MB-231 cells assessed as cell growth inhibition incubated for 24 hrs in presence of nutlin-3 by CCK-8 assay; settings: MDA-MB-231, 24 h

COc1ccc(C2=NC(c3ccc(Cl)cc3)C(c3ccc(Cl)cc3)N2C(=O)N2CCNC(=O)C2)c(OC(C)C)c1 (centres undefined) was tested, and the IC50 [1] was 28500 nM.
Work on CN(CCOCCOCCOCCOCCOCCOCCNc1cccc2c1C(=O)N(C1CCC(=O)NC1=O)C2=O)Cc1ccc(-c2[nH]c3cc(F)cc4c3c2CCNC4=O)cc1 (centres undefined) yielded a DC50 [2] of 36 nM.
O=C(c1ccc(Cc2n[nH]c(=O)c3cccnc23)cc1)N1CCCC1 was tested, and the IC50 [3] was 36 nM.
In the case of O=C1CN(Cc2cn(-c3ccccc3F)nn2)C2(CCCCC2)c2ccccc21, the IC50 [4] is reported as 14.4 nM and the IC50 [5] is reported as 230 nM.
For O=C1CCc2cc(-c3ccccc3F)ccc2C2(CCCCC2)N1, the IC50 [6] was 2010 nM and the IC50 [4] was 19.9 nM.
Compound Cc1nnc2n1N=C(c1ccccc1OCCNCCCNCCOc1ccccc1C1=Nn3c(C)nnc3SC1)CS2 has an IC50 [4] of 1.37 nM and an IC50 [7] of 64.7 nM.
CC(c1nc2cccc(C(N)=O)c2[nH]1)N1CC(=O)N(c2cccc(C(F)(F)F)c2)C1=S (centres undefined) gave an IC50 [8] of 1000 nM and an IC50 [3] of 25 nM.
With O=C1CCN(Cc2cn(-c3ccccc3F)nn2)C2(CCCCC2)c2ccccc21 the IC50 [5] was 1890 nM.
O=C1NCC(c2ccccn2)[C@@H](O)c2cc(Cl)c(Cl)cc21 (some centres undefined) showed an IC50 [9] of 74100 nM and an IC50 [10] of 362 nM.
Work on COc1ccc(C2=N[C@H](c3ccc(Cl)cc3)[C@H](c3ccc(Cl)cc3)N2C(=O)N2CCN(CC(=O)NCCOCCOCCOCCOCCn3cc(-c4ccc(-n5cc6cccc(C(N)=O)c6n5)cc4)nn3)C(=O)C2)c(OC(C)C)c1 yielded an Activity [11] of 70% and an IC50 [1] of 8450 nM.
In the case of O=c1cc(-c2ccc(O)c(-c3c(O)cc(O)c4c(=O)cc(-c5ccc(O)cc5)oc34)c2)oc2cc(O)cc(O)c12 [AMENTOFLAVONE], the IC50 [4] is reported as 198 nM.
Work on NC(=O)c1cccc2cn(-c3ccc([C@@H]4CCCNC4)cc3)nc12 [NIRAPARIB] yielded an IC50 [1] of 33200 nM and an IC50 [12] of 60900 nM.
